Usually EC50 stands for the concentration that produces a half-maximal response.

Like-named read-outs stand apart in the source and are kept apart here.

In data set [1] the test system is HeLa cells expressing mt-Keima and YFP-Parkin (HeLa MKYP). The data set is described as follows: Human mt-Keima mitophagy assay. It counts as cell-based. The conditions noted are these: HeLa MKYP cells, 16 hrs with compound, then 1 uM FCCP/oligomycin for 6 hours, FACS, read-out: EC50 in HeLa mt-Keima Mitophagy Assay. The method, then: Briefly, HeLa cells expressing mt-Keima and YFP-Parkin (HeLa MKYP) were plated at 10,000 cells/well in 96 well plates along with compounds at various concentrations. Following 16 hrs of incubation, cells were treated with 1 uM FCCP/oligomycin for 6 hours, then analyzed via FACS for the presence of mitochondria in lysosomes (as determined by an emissions spectrum shift from the pH-sensitive mt-Keima tag).

Data set [2] deals with SKOV3 cells. The data set is described as follows: In vitro mitosafety (glucose/galactose) assay. Particulars: highest mito-safe dose = highest concentration at which gal/glc>0.80 (IC20) in SKOV3 cells, divided by mt-Keima EC50.
Experimental: (§1) Briefly, SKOV3 cells (ATCC HTB-77) were plated in DMEM (Corning 10-013-CV) medium containing 25 mM glucose or DMEM with no glucose (Gibco 11966-025) supplemented with 10 mM galactose at 9,000 cells/well in 96 well plates (Corning costar 3610). 24 hrs later, compounds, in DMSO, were added at various concentrations to a final 0.1% DMSO for all wells. […] After a 15 minute incubation cellular ATP levels were read out using a Promega GloMax® DiscoverMicroplate Reader.
(§2) The ratio of relative CellTiter-Glo values from cells grown in galactose to cells grown in glucose was determined (gal/glc ratio). The gal/glc ratio vs concentration is then graphed, and non-linear regression is used to find the highest concentration of MTK compound at which gal/glc>0.80 (the “highest mito-safe dose”, or IC20).
Data set [3] relates to pS129 α-synuclein in mouse primary neurons treated with α-synuclein PFFs. Briefly: In vitro primary neuron α-synuclein pre-formed fibril (PFF) model. It counts as cell-based. The conditions noted are these: increasing doses, Western blot of insoluble fraction of lysates. How it is done:
Primary hippocampal neurons were derived following standard protocols, and treated with sonicated PFFs according to the methods in Volpicelli-Daley et al (Methods Mol Biol 2019). Following addition of PFFs or PBS on DIV7, Mitokinin compound or vehicle control was added on DIV9 and DIV12. At DIV14, cultures were harvested for biochemical analysis using either whole cell lysis buffer or fractionation buffer containing NP-40.
For whole cell lysates, cultures were collected in WC lysis buffer [100 mM Bicine pH 8.0, 0.27M Sucrose (Sigma S-1888, FW: 342.3), 1 mM EDTA, 1 mM EGTA, 5 mM Na4P2O7 (ESB422, MW 446.06 g/mol), 100 mM Tris pH 7.5, 1% Triton X-100, 1× Halt™ Protease and Phosphatase Inhibitor Cocktail, with Benzonase (1:1000)]. Samples were incubated on ice for 30 min, sonicated, and then cleared by centrifugation at 18,000 g for 20 min at 4° C. Supernatant protein concentration was determined by BCA assay, and samples were analyzed by western blot using commercially available antibodies. Neuronal health markers included NfL, total caspase-3, cleaved caspase-3, pS65 Ub, LC3, TUJ1, and actin.
For fractionation, cells were collected in NP-40 lysis buffer (containing 10 mM Tris-HCl, pH 7.4, 150 mM NaCl, 5 mM EDTA, 0.5% Nonidet P-40, 1× Halt™ Protease and Phosphatase Inhibitor Cocktail, with Benzonase (1:1000). Following differential centrifugation at 22,000 g for 20 min at 4° C., the NP-40 insoluble pellet was resuspended in SDS-Brain lysis buffer (containing 10 mM Tris-HCl, pH 7.4, 150 mM NaCl, 5 mM EDTA, 0.5% Nonidet P-40, 1% SDS, 0.5% sodium deoxycholate, 1× Halt™ Protease and Phosphatase Inhibitor Cocktail, with Benzonase (1:1000) and sonicated. Protein concentrations were determined using the BCA assay and samples were analyzed for pS129 α-synuclein and total α-synuclein levels by western blot.

Data set [4] has as its system SKOV3 cells.
Experimental: as §1, §2

On to `COCCO[C@H]1COc2ccccc2[C@@H]1Nc1ncnc2[nH]c(C3CC3)cc12` [EP-0041944, 6-cyclopropyl-N-[(3R,4S)-3-(2-methoxyethoxy)chroman-4-yl]-7H-pyrrolo[2,3-d]pyrimidin-4-amine], for which, in data set [1] (Homo sapiens), the EC50 came to 130 nM. In addition, the “Mito-Safety Index (highest mito-safe dose/mt-Keima EC50)” value (shortened to “Mito-Safety Index”) with SKOV3 cells [2] turned out to be 45.94. For the same compound, the “pS129 α-synuclein” value in data set [3] is recorded as “significantly reduces”.
For the compound `CC(C)(F)CO[C@H]1COc2ccccc2[C@@H]1Nc1ncnc2[nH]c(C3CC3)cc12` [EP-0043180, 6-cyclopropyl-N-[(3R,4S)-3-(2-fluoro-2-methyl-propoxy)chroman-4-yl]-7H-pyrrolo[2,3-d]pyrimidin-4-amine], the EC50 in data set [1] (Homo sapiens) was 149 nM. Further, in the data set with SKOV3 cells [2], the “Mito-Safety Index” value was 168.02. In addition, in data set [3], the “pS129 α-synuclein” value is “significantly reduces”.
For “N-[(3R,4,S)-3-(2-methoxyethoxy)chroman-4-yl]-6-(trifluoromethyl)-7H-pyrrolo[2,3-d]pyrimidin-4-amine [EP-0042319]”, the concentration for a half-maximal effect (EC50) in data set [1] was found to be 246 nM. Besides, the “pS129 α-synuclein” value in data set [3] is on record as “significantly reduces”. For the same compound, the “Mito-Safety Index” value in the data set on SKOV3 cells [4] worked out at 74.75.

For the origin of these results see patent US20240376111A1, “COMPOSITIONS AND METHODS OF USING THE SAME FOR TREATMENT OF NEURODEGENERATIVE AND MITOCHONDRIAL DISEASE” (Mitokinin, Inc., priority 2021, published 2024).
